Among the data in article PMC7308088, “A moth odorant receptor highly expressed in the ovipositor is involved in detecting host-plant volatiles” (eLife, 2020) are EC50 values, retold here.

This test concerns the target T1, HassOR31/HassORco (Helicoverpa assulta, UniProt A0A7D3UMA0).
T1 construct: with Odorant receptor coreceptor
T1 sequence (A0A7D3UMA0 1-395): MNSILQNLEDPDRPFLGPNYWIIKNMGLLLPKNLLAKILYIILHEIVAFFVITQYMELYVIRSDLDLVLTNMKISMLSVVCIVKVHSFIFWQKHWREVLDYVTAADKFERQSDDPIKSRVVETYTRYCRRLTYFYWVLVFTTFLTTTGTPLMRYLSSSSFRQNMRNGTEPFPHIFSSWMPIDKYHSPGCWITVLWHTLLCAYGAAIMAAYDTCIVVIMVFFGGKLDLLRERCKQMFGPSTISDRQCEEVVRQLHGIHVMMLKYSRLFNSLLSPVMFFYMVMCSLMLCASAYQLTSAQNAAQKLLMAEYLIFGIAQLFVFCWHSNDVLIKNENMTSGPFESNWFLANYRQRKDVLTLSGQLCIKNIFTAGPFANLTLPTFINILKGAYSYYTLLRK
T1 sequence (A7UGE1 1-473 partner): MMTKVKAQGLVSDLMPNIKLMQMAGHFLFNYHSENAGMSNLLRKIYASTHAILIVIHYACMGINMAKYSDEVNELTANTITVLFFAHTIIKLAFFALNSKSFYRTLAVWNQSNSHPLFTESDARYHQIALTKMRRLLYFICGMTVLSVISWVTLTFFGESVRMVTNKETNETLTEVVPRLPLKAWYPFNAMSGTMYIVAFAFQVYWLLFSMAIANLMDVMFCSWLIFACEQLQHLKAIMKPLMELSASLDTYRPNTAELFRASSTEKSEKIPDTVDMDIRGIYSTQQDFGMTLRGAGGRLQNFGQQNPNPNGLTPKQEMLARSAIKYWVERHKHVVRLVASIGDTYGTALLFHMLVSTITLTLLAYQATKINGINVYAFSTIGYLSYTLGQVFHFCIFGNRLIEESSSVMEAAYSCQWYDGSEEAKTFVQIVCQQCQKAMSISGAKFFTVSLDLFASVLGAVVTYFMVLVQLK
In words: two-electrode voltage clamp, Xenopus oocytes, inward current. The test is classed as cell-based. (In two-electrode clamp one electrode senses voltage and the other passes current.)

SMILES strings stand for the structures.

The term EC50 denotes the concentration needed to bring the measured effect to its halfway point. A low value points to an effect from little substance. For `CC/C=C\CCOC(=O)CCC` [Z-3-hexenyl butyrate], a half-maximal effect (EC50) was put at 16.1 µM.
